# Assay results taken from patent publication US20200131144A1, “AMINE OR (THIO)AMIDE CONTAINING LXR MODULATORS” (Phenex-FXR GmbH, priority 2017, published 2020).
# Several values for one entry are separate records, joined by “and”; a condition that tells them apart may be missing. Identical values can stand only once.
# Columns and labels:
# LXRβ full length (FL) = target: T1, LXRβ full length (FL) (Homo sapiens, UniProt P55055, INS174Q); assay: LXR Gal4 reporter transient transfection assay, mammalian two-hybrid, FL-M2H Gal4β; format: cell-based; details: HEK293 cells; inverse agonist unless *
# T1 construct: the full length (FL) proteins of LXRα (amino acids 1-447); NP005684; NP009052; expressed in transfected cells; host or cells: HEK293
# T1 sequence (P55055 with tags, fused parts or gaps INS174Q): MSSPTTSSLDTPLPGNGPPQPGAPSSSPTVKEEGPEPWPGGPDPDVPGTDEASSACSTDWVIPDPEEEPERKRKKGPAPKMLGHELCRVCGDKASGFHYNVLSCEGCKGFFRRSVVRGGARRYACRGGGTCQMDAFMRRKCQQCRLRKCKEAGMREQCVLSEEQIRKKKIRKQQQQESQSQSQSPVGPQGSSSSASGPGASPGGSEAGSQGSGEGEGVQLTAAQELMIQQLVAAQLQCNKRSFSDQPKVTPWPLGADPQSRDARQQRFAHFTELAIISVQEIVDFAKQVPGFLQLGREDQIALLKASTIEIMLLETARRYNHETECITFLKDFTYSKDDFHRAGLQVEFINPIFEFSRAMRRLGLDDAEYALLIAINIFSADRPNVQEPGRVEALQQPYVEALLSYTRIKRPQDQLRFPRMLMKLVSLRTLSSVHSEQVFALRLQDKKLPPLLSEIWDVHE
# Procedure: (§1) The tested compounds were usually dissolved, tested and stored as 20 mM stock solutions in DMSO. Since sulfonyl acetic acid derivatives tend to decarboxylate under these conditions, these stock solutions were prepared, tested and stored as 20 mM DMSO stock solutions containing 100 mM trifluoroacetic acid (5 equivalents). Sulfonyl acetic acid derivatives are shelf stable as solid at rt for long time as reported by Griesbrecht et al. (Synlett 2010:374) or Faucher et al. (J. Med. Chem. 2004; 47:18).
# (§2) LXR Gal4 Reporter Transient Transfection Assays
# (§3) LXRα and LXRβ activity status was determined via detection of interaction with coactivator and corepressor proteins in mammalian two-hybrid experiments (M2H). For this, via transient transfection the full length (FL) proteins of LXRα (amino acids 1-447; NP005684; SEQ ID NO:1) or LXRβ-(amino acids 1-461; NP009052; SEQ ID NO:2) or the ligand-binding domains (LBD) of LXRα (amino acids 155-447 SEQ ID NO:3) or LXR (amino acids 156-461; SEQ ID NO:4) were expressed from pCMV-AD (Stratagene) as fusions to the transcriptional activation domain of NFkB. As cofactors, domains of either the steroid receptor coactivator 1 (SRC1; amino acids 552-887; SEQ ID NO:5) or of the corepressor NCoR (amino acids 1906-2312; NP006302; SEQ ID NO:6) were expressed as fusions to the DNA binding domain of the yeast transcription factor GAL4 (from pCMV-BD; Stratagene). Interaction was monitored via activation of a coexpressed Firefly Luciferase Reporter gene under control of a promoter containing repetitive GAL4 response elements (vector pFRLuc; Stratagene). Transfection efficiency was controlled via cotransfection of constitutively active pRL-CMV Renilla reniformis luciferase reporter (Promega). HEK293 cells were grown in minimum essential medium (MEM) with 2 mM L-glutamine and Earle's balanced salt solution supplemented with 8.3% fetal bovine serum, 0.1 mM non-essential amino acids, 1 mM sodium pyruvate, at 37° C. in 5% CO2. 3.5×10^4 cells/well were plated in 96-well cell culture plates in growth medium supplemented with 8.3% fetal bovine serum for 16-20 h to—90% confluency. For transfection, medium was taken off and LXR and cofactor expressing plasmids as well as the reporter plasmids are added in 30 μL OPTIMEM/well including polyethylene-imine (PEI) as vehicle. Typical amounts of plasmids transfected/well: pCMV-AD-LXR (5 ng), pCMV-BD-cofactor (5 ng), pFR-Luc (100 ng), pRL-CMV (0.5 ng). Compound stocks were prepared in DMSO, prediluted in MEM to a total volume of 120 μL, and added 4 h after addition of the transfection mixture (final vehicle concentration not exceeding 0.2%). Cells were incubated for additional 16 h, lysed for 10 min in 1×Passive Lysis Buffer (Promega) and Firefly and Renilla luciferase activities were measured sequentially in the same cell extract using buffers containing D-luciferine and coelenterazine, respectively. Measurements of luminescence were done in a BMG-luminometer.
# [1] = target: T2, GST-LXRβ ligand-binding domain (Homo sapiens, UniProt P55055, INS174Q); assay: TR-FRETβ activity assay (NCoA3 coactivator peptide recruitment); format: biochemical; details: 1 μM 24(S)-25-epoxycholesterol as prestimulating agonist; inverse agonist unless *
# T2 construct: amino acids 156-461; NP009052; made in house; host or cells: E. coli
# T2 sequence (P55055 with tags, fused parts or gaps INS174Q limits assumed): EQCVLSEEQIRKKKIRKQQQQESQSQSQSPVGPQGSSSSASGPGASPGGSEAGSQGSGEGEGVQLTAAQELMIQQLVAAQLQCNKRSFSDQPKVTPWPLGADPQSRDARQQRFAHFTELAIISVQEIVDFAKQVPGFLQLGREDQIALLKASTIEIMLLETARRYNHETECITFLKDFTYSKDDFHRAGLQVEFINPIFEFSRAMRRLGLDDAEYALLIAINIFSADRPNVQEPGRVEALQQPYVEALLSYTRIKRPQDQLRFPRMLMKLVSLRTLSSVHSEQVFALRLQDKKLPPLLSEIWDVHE
# Procedure: The tested compounds were usually dissolved, tested and stored as 20 mM stock solutions in DMSO. […] Sulfonyl acetic acid derivatives are shelf stable as solid at rt for long time as reported by Griesbrecht et al. (Synlett 2010:374) or Faucher et al. (J. Med. Chem. 2004; 47:18). TR-FRETβ Activity Assay Recombinant GST-LXRβ ligand-binding domain (LBD; amino acids 156-461; NP009052; SEQ ID NO:4) was expressed in E. coli and purified via gluthatione-sepharose affinity chromatography. N-terminally biotinylated NCoA3 coactivator peptide (SEQ ID NO:7) was chemically synthesized (Eurogentec). […] Finally, a detection mix was added containing anti GST-Tb cryptate (CisBio; 610SAXLB) and Streptavidin-XL665 (CisBio; 610SAXLB) as fluorescent donor and acceptor, respectively, as well as the coactivator peptide and LXRβ-LBD protein (SEQ ID NO:4). The reaction was mixed thoroughly, equilibrated for 1 h at 4° C. and vicinity of LXRβ and coactivator peptide was detected by measurement of fluorescence in a VictorX4 multiplate reader (PerkinElmer Life Science) using 340 nm as excitation and 615 and 665 nm as emission wavelengths. Assays were performed in triplicates. Final Assay Concentrations of Components: 240 mM KCl, 1 μg/μL BSA, 0.002% Triton-X-100, 125 pg/μL anti GST-Tb cryptate, 2.5 ng/μL Streptavidin-XL665, coactivator peptide (400 nM), LXRP protein ([…], i.e. 76 nM).
# LXRα full length (FL) = target: T3, LXRα full length (FL) (Homo sapiens, UniProt Q13133); assay: LXR Gal4 reporter transient transfection assay, mammalian two-hybrid, FL-M2H Gal4α; format: cell-based; details: HEK293 cells; inverse agonist unless *
# T3 construct: the full length (FL) proteins of LXRα (amino acids 1-447); NP005684; expressed in transfected cells; host or cells: HEK293
# T3 sequence (Q13133 1-447): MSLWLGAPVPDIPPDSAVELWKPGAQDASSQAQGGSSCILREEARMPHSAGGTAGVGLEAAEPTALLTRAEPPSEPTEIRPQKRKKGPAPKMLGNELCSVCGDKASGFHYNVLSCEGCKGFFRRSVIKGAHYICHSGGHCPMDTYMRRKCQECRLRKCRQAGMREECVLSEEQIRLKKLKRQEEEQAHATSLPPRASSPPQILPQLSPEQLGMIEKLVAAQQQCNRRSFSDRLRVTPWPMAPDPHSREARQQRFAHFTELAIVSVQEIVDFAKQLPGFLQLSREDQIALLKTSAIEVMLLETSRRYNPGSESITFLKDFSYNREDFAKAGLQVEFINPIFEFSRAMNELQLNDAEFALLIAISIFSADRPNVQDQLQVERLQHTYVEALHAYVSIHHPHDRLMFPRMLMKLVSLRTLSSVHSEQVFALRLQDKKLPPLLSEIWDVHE
# Procedure: as §1, §2, §3
Structure (SMILES),EC50 (LXRβ full length (FL)),EC50 [1] [nM],EC50 (LXRα full length (FL)) [nM],FRETβ [1]
O=C(O)CS(=O)(=O)c1cccc(-c2ccc(CN(Cc3ccc(C(F)(F)F)o3)Cc3cccc4ccccc34)cc2)c1 [7/2],100 to 1000 nM,1000 to 10000,100 to 1000,
O=C(O)CS(=O)(=O)c1cccc(-c2ccc(CN(Cc3ccc(C(F)(F)F)o3)Cc3ccc(F)c4cccnc34)cc2)c1 [7/3],1000 to 10000 nM and 100 to 1000 nM,,1000 to 10000,B*
Cc1cc(C)c(CN(Cc2ccc(-c3cccc(S(=O)(=O)CC(=O)O)c3)cc2)C(C)c2ccc(C(F)(F)F)o2)c(C)c1 (stereo not drawn) [7/12],100 to 1000 nM,1000 to 10000,100 to 1000,
Cc1cc(C)c(CN(Cc2ccc(-c3cc(F)cc(S(=O)(=O)CC(=O)O)c3)cc2)Cc2ccc(C(F)(F)F)o2)c(C)c1 [12/1],100 to 1000 nM,100 to 1000,100 to 1000,
Cc1cc(C)c(CN(Cc2ccc(C(F)(F)F)o2)Cc2ccc(-c3cccc(S(=O)(=O)CC(=O)O)c3)cc2C)c(C)c1 [15/1],100 to 1000 nM,1000 to 10000,1000 to 10000,
COc1cc(-c2cc(F)c(CO)c(S(=O)(=O)CC(=O)O)c2)ccc1CN(Cc1ccc(C(F)(F)F)o1)Cc1c(C)ccc2ccccc12 [22/9],< 100 nM,1000 to 10000,100 to 1000,
Cc1cc(C)c(C(=O)N(Cc2ccc(-c3cc(F)c(CO)c(S(=O)(=O)CC(=O)O)c3)cc2)Cc2ccc(C(F)(F)F)o2)c(C)c1 [22/13],100 to 1000 nM,1000 to 10000,100 to 1000,
Cc1ccc2ccccc2c1CN(Cc1ccc(-c2cncc(S(=O)(=O)CC(=O)O)c2)cc1)Cc1ccc(C(F)(F)F)o1 [26/7],100 to 1000 nM,> 10000,1000 to 10000,
Cc1ccc2ccccc2c1C(=O)N(Cc1ccc(-c2cccc(C(C)(C)C(=O)O)c2)cc1)Cc1ccc(C(C)(C)C)o1 [27/1],< 100 nM,1000 to 10000,100 to 1000,
Cc1ccc2ccccc2c1C(=O)N(Cc1ccc(-c2cccc(S(=O)(=O)CC(=O)O)c2)cc1)Cc1ccc(C(F)(F)F)[nH]1 [27/3],1000 to 10000 nM,1000 to 10000,1000 to 10000,
Cc1ccc2ccccc2c1C(=O)N(Cc1ccc(-c2cccc(C(C)(C)C(=O)O)c2)cc1)C1CCc2ccc(C(F)(F)F)cc21 (stereo not drawn) [27/5],< 100 nM,100 to 1000,< 100,
Cc1ccc2ccccc2c1C(=O)N(Cc1ccc(C(F)(F)F)o1)Cc1c(F)cc(-c2cccc(C(C)(C)C(=O)O)c2)cc1Cl [27/6],< 100 nM,< 100,< 100,
CC(c1cccc2ncccc12)N(Cc1ccc(-c2cccc(S(=O)(=O)CC(=O)O)c2)cc1)Cc1ccc(C(F)(F)F)o1 (stereo not drawn) [27/8],100 to 1000 nM,1000 to 10000,100 to 1000,

# The remaining lines, values ahead:
EC50 (LXRβ full length (FL)),EC50 [1] [nM],EC50 (LXRα full length (FL)) [nM],FRETβ [1],Structure (SMILES)
100 to 1000 nM,100 to 1000,100 to 1000,,COc1ccc2ccccc2c1CN(Cc1ccc(-c2cccc(S(=O)(=O)CC(=O)O)c2)cc1)Cc1ccc(C(F)(F)F)o1 [7/5]
100 to 1000 nM,1000 to 10000,100 to 1000,,Cc1sc2ccccc2c1CN(Cc1ccc(-c2cccc(S(=O)(=O)CC(=O)O)c2)cc1)Cc1ccc(C(F)(F)F)o1 [7/6]
100 to 1000 nM,100 to 1000,1000 to 10000,,O=C(O)CS(=O)(=O)c1cccc(-c2ccc(CN(Cc3ccc(C(F)(F)F)o3)Cc3c(Cl)cccc3Cl)cc2)c1 [7/10]
1000 to 10000 nM,1000 to 10000,1000 to 10000,,Cc1cc(C)c(CN(Cc2ccc(-c3cccc(S(=O)(=O)CC(=O)O)c3)cc2)Cc2ccc(C(=O)N(C)C)o2)c(C)c1 [7/13]
100 to 1000 nM,1000 to 10000,1000 to 10000,,Cc1cc(C)c(CN(Cc2ccc(-c3cccc(S(=O)(=O)CC(=O)O)c3)cc2)Cc2cccc(C(F)(F)F)c2)c(C)c1 [7/14]
< 100 nM,< 100,< 100,,Cc1ccc2ccccc2c1C(=O)N(Cc1ccc(-c2cccc([C@H](C)C(=O)O)c2)cc1)Cc1ccc(C(F)(F)F)o1 [10/6]
100 to 1000 nM,1000 to 10000,100 to 1000,,Cc1ccc2ccccc2c1CN(Cc1ccc(-c2cc(F)c(CO)c(S(=O)(=O)CC(=O)O)c2)cc1)Cc1ccc(C(F)(F)F)o1 [22/7]
100 to 1000 nM,1000 to 10000,1000 to 10000,,COc1cc(-c2cc(F)c(CO)c(S(=O)(=O)CC(=O)O)c2)ccc1CN(Cc1ccc(C(F)(F)F)o1)Cc1c(C)cc(C)cc1C [22/10]
1000 to 10000 nM,1000 to 10000,1000 to 10000,,Cc1ccc2ccccc2c1C(=O)N(Cc1ccc(-c2cccc(S(=O)(=O)CC(=O)O)c2)cc1)Cc1ccc(C#N)o1 [27/2]
100 to 1000 nM,> 10000,100 to 1000,,Cc1ccc2ccccc2c1C(=O)N(Cc1ccc(C(F)(F)F)o1)C1COc2cc(-c3cccc(C(C)(C)C(=O)O)c3)ccc21 (stereo not drawn) [27/4]
